According to patent US20160297828A1, “SPIROCYCLIC COMPOUNDS CONTAINING SPIRO[INDOLYL-3,1'-PYRROLO[3,4-C]PYRROLE] CORE AND SULPHUR-CONTAINING AMINO ACID RESIDUES” (priority 2013, published 2016):
Marks after values point to notes of the source that are not given here.

What was measured:
Assay type in all cases: in vivo
[1] = tested on: rats with intracerebral hemorrhage; assay: Conditioned response of passive avoidance (CRPA) in rats with intracerebral hemorrhage; settings: 21st day, n = 15
Description: Neuroprotective effect of 3,2′-spiro-pyrrolo-2-oxindole derivative (SI-86 compound) was studied on IUD model of moderate severity modeled under propofol anesthesia (60 mg/kg intraperitoneally (ip)) by autoblood administration into the brain internal capsule (stereotactic coordinates of the projection: H=7.0 mm, L=3.0 mm, A=1.5 mm from bregma) ([…]) (Method for reproduction of intracerebral hemorrhage in rats/O. K. Yarosh, S. V. Kyrychenko, S. P. Halimonchyk [et al.]//Circulation and hemostasis.-2005.-No. 1.-P. 77-81). The chosen model allows to reproduce clinical pattern of […] and is adequate for clinical study of potential neuroprotective agents.
As comparators the following drugs were used: mexydol (“Mexydol” UC Pharmasoft, Russia), 100 mg/kg; citicoline (“Somazina” Ferrer International, SA, Spain), 250 mg/kg; aktovegin (“Aktovegin”, Nycomed, Austria), 16 mg/kg pyracetam (“Pyracetam” Darnitsa, Ukraine), 400 mg/kg. According to the latest clinical guidelines regarding the treatment of patients with CVA approved by the Ministry of Health of Ukraine (Order No. 602 dated 3 Aug. 2012), all these drugs are allowed to be included into schemes for intensive patients therapy with CVA as neuroprotective agents. They were used at recommended doses for preclinical studies (McGrow C. P. Experimental Cerebral Infarction Effects of Pentobarbital in Mongolian Gerbils/C. P. McGrow//Arch. Neurol.-1977.-Vol. 34, No. 6.-P. 334-336). Experimental therapy of acute cerebral ischemia with SI-86 compound and comparator started 1 hour after IUD once a day for 21 days. The SI-86 derivative was investigated in conventionally effective dose of 10 mg/kg […] (iv)-dose that according to the results of our previous study provides maximum antihypoxic activity of SI-86 compound. Reference drugs were injected intraperitoneally (ip). Rats of control pathology group were injected by autoblood and as therapy 0.9% NaCI solution was administered calculated for 2 ml/kg […].
Evaluation of the ability of animals to learn and memorize of aversive stimulus was examined in the test of conditioned response of passive avoidance (CRPA). The technique is based on innate rat instinct to limited shadowy space. The study in rats was conducted in two-compartment unit consisted of two sections—light and dark. An animal was arranged into light compartment, fixing latency time for entering into the dark compartment, wherein rat received current irritation and ran in the light compartment. CRPA retention was tested every other day under latency time change of rat entering into the dark compartment. Also the number of animals was noted not fully entered the dark chamber. Cerebroprotective efficiency criteria of studied compounds were also animal death term (days) and their mortality rate (in %).

rats = assay: Acute normobaric hypoxic hypoxia with hypercapnia (ANHHH), life duration; settings: preventive administration; SI-86 and SI-108 10 mg/kg iv, mexydol 100 mg/kg ip
Description: The study of antihypoxic activity of 10 original derivatives of 3,2′-spiro-pyrrolo-2-oxindole was conducted on models of acute normobaric hypoxic hypoxia with hypercapnia (ANHHH) and acute asphyxia. ANHHH was modeled by means of rat arrangement into isolated pressure compartments (0.001 m^3). The observation conducted until the death of the animals. The antihypoxic activity was assessed by life duration (in minutes) in relation to the control taken as 100%, by the formula AA=tt/tk×100%, wherein AA—antihypoxic activity (%), tt—life duration of test animals, tc—life duration of control animals.
The preliminary screening of test substances was performed on ANHHH model. All derivatives were administered in the same dose of 10 mg/kg […] (iv) 1 hour prior to pathological state modeling. […] The effectiveness of a leader compound was evaluated at doses 5; 10 and 15 mg/kg iv. Mexydol was chosen as a reference drug having antihypoxic action in combination with antioxidant and membrane protective activity, which is successfully used in patients with CVA and IM. Mexydol was administered intraperitoneally (ip) at a dose of 100 mg/kg according to similar scheme.

liver and pancrea cells = assay: Pro/antiapoptosis properties, electrophoresis of DNA fragments; settings: intact male Wistar rats; 50 mg/kg
Description: The assessment of pro/antiapoptotosis properties of substances was carried in intact male rats of Wistar line. The test substance were administered for 2 weeks by means of a probe in aqueous suspension containing Tween-80 at a dose of 50 mg/kg of body weight. The animals were euthanized by cervical vertebrae translocation 24 hours after the experiment. The identification of apoptosis of liver and pancrea cells was performed using electrophoretic method. […] Cell necrosis conditioned the “smeared” nature of DNA migration zone. The luminescence band of intact DNA was in the starting area.
The expression of apoptosis manifestations was assessed by registration of DNA fragments via electrophoresis.

[2] = tested on: neuron-specific enolase (NSE); assay: Neuron-specific enolase (NSE) activity in rats with bilateral carotid occlusion (ELISA); settings: BCO; for NSE activity (dynamics of neurodestructive changes): n = 7
Description: The derivative of 3,2′-spiro-pyrrolo-2-oxindole was studied in conventionally effective dose of 10 mg/kg […] (iv)—dose that by the results of our previous study provided maximum antihypoxic activity of the SI-86compound. Reference drugs were injected intraperitoneally (ip). […] BCO was made to rats of control pathology and as therapy 0.9% NaCI solution was administered calculated for 2 ml/kg ip.
Pseudooperative rats were exposed to all interventions (anesthesia, skin incision, dissection of vessels) except arteries ligation that leveled traumatic effect of experimental conditions.
To determine neurospecific enolase, specific marker of cerebral ischemia,—to the period (4 th and 21 st day of CVA) in rat's blood was sampled by sagittal sinus puncture (0.2-0.4 ml). NSE activity was measured by ELISA using a set NSE EIA KIT (DAI, USA) on the instrument of the company “Hipson” (Czech Republic).

Q: How did the “Latent period for entrance into dark compartment, prior study” value ([1]; SI-86 10 mg/kg iv, mexydol 100, citocoline 250, actovegin 16, pyracetam 400 mg/kg ip) turn out when `CSCC[C@@H]1N[C@@]2(C(=O)Nc3ccccc32)[C@@H]2C(=O)N(c3ccc(C)cc3)C(=O)[C@H]12` [SI-86, 5′-(4-Methylphenyl)-3′-[2-(methylthio)ethyl]-3a′,6a′-dihydro-2′H-spiro[indole-3,1′-pyrrolo[3,4-c]pyrrol]-2,4′,6′(1H,3′H,5′H)-trione] was run?
A: Its value is 9.50 ± 0.34°*^#•$ s.

Q: What about the “Latent period for entrance into dark compartment, 24 hours after study” value ([1]; same doses) of the same compound?
A: Its value is 127.10 ± 2.71°*^#•$ s.

Q: What about the “increase of life duration in rats in relation to control” value (rats) of the same compound?
A: The value was 33.7%.

Q: And the level of apoptosis (liver and pancrea cells)?
A: The level of apoptosis was “closed to that of control group”.

Q: And the “enzyme activity decreased in relation to the control pathology group” value ([2]; 96 hours)?
A: The value was 2.03 times.

Q: And the “enzyme activity decreased in relation to the control pathology group” value ([2]; 21 days)?
A: The value was 3.84 times.

Q: And the “effectiveness in reducing NSE better than citocoline” value ([2]; acute period)?
A: Its value is 1.6 times.

Q: What about the “NSE activity (dynamics of neurodestructive changes)” value ([2]; day 4, SI-86 10 mg/kg iv, citocoline 250 mg/kg ip) of the same compound?
A: Its value is 0.61 ± 0.004*^#•.

Q: What about the “NSE activity (dynamics of neurodestructive changes)” value ([2]; day 21, same doses) of the same compound?
A: The value was 0.204 ± 0.015*^#•.

Q: What about the “effectiveness in reducing NSE better than citocoline” value ([2]; recovery period) of the same compound?
A: The value was 1.9 times.
